How the values were obtained:
[1] = test system: root-knot nematode (Meloidogyne incognita); settings: known from prior reports; cited from earlier work
[2] = test system: H. glycines second-stage nematodes (J2), races 2 (HG type 1.2.5.7) and 5 (HG type 2.5.7); test: whole plant or invertebrate; settings: for nematocidal activity against races 2 and 5: 24 hours incubation, 0.5 and 1.0 mg/ml, overall statement; for mortality at 500 µg/mL / mortality at 1000 µg/mL: Heterodera glycines, 24 h, read-out: J2 mortality
Protocol: Determination of the nematocidal activity of phenolic compounds was conducted as previously described. Briefly, approximately 400 freshly hatched J2s in 900 μl of water were added to each well of a 24-well Microtest™ tissue culture plate, and 100 μl of the compound test solution was added at concentrations of 5 mg/ml and 10 mg/ml. Therefore, the final concentration of each compound in each suspension is 0.5 mg/ml and 1.0 mg/ml. Control samples received 100 μl of water. Three replicates per concentration were used. The plate was covered with the original solid lid and wrapped with Parafilm®, and samples were kept at 27° C. in an incubator. After 24 hours of incubation, dead and alive J2 nematodes were counted using a stereo microscope Leica M165 FC (×40) to evaluate mortality rates. J2 mortality can be estimated according to the mean percentage of dead J2 in the total number of J2 (alive and dead). Nematodes are considered dead when no movement was observed during 3 seconds of observation. The compounds 3,4-dihydroxybenzoic acid and 4-hydroxybenzaldehyde are commercially available at Sigma-Aldrich, USA.

nematode = settings: general statement; cited from earlier work

Row | Compound | nematocidal activity against root-knot nematode [1] | nematocidal activity against races 2 and 5 [2] | mortality at 500 µg/mL [2] [%] | mortality at 1000 µg/mL [2] [%] | direct nematocidal activity (nematode)
1 | O=C(O)c1ccc(O)c(O)c1 [3,4-dihydroxybenzoic acid] | showing nematocidal activity | demonstrated nematocidal activity | 19 | 30 | 
2 | O=Cc1ccc(O)cc1 [4-hydroxybenzaldehyde] |  | demonstrated nematocidal activity | 68 | 96 | 
3 | O=C(O)c1ccccc1O [SA, salicylic acid] |  |  |  |  | no direct nematocidal activity

From patent publication US20200345006A1, “METHODS OF REDUCING NEMATODE INFECTION IN PLANTS” (The University of North Carolina at Charlotte, priority 2019, published 2020)
